# According to publication PMC11767451, “Novel Approaches to Monitor Pharmacokinetics and Metabolism of Gemcitabine-Ibandronate Conjugate in Mice and Dogs” (Molecules, 2025):
# Assay: Autosampler stability of extracted mouse plasma samples at 4 °C
# Assay type: physicochemical
# Protocol: The stability of extracted dog and mouse plasma samples in the autosampler at 4 °C was established for 24 and 48 h. Except for GEM-IB, in mouse and dog plasma extracts, all analytes were within ±20% of the nominal enriched concentration for up to 48 h in the autosampler. GEM-IB was stable for up to 24 h under these conditions.
# Method development and validation was conducted following applicable FDA guidelines for bioanalytical assays, as considered fit for purpose. Specificity. Endogenous interferences were excluded by analysis of blank plasma from 6 different individual lots of plasma. The lower limit of quantification (LLOQ) was determined as the lowest concentration consistently achieving an accuracy better than ±20% of the nominal concentration, with imprecision ≤20%. Predefined acceptance criteria. The performance of the assay was considered acceptable if intra- and inter-day imprecision (coefficient of variance, %CV) at each concentration was ≤15%, except at the LLOQ (≤20%). Intra- and inter-day accuracy had to be ±15% of the nominal value, except at the LLOQ (±20%). Calibration curves had to have a correlation coefficient (r) of 0.99 or better. Analytical recovery and imprecision. Intra- and inter-day analytical accuracy and imprecision were tested at least at four concentration levels depending on the LLOQ for each compound. Intra-day imprecision and accuracy were determined with n = 6 per QC level. Inter-day imprecision and accuracy were measured over 3 days, with six replicates for each QC concentration (n = 18). Extraction efficiency and matrix effect. Extraction efficiency for GEM-IB and metabolites was established by comparing the signals of the analytes after the extraction of QCs (n = 6/concentrations), with the signals of the extracted blank matrix spiked with the respective concentrations of analytes after the extraction procedure. The matrix effect was determined by comparing the analyte LC-MS/MS signal after spiking of the analyte into the extracted blank matrix (matrix from 6 different individual lots, analyte concentrations as for the QC samples) with the HPLC-MS/MS signal of the same amount of analyte in neat solution [25]. Carry-over. Carry-over was assessed by injecting blank buffer samples after analysis of the highest calibrators. Carry-over was considered insignificant if there was no signal at the relevant retention times exceeding 20% of the analyte signals at the LLOQ. Stability. QC samples were freshly prepared. One set was extracted and was analyzed immediately to determine baseline signals. Analyte stability in plasma was evaluated at two QC concentration levels (n = 3/concentration level) under different conditions: 1, 2, and 24 h at room temperature and at 4 °C. In addition, stability after extraction was determined after 24 h and 48 h at 4 °C in the autosampler and for up to 3 freeze (−70 °C)–thaw (ambient) cycles. Stability was assessed by comparing analyte concentrations with baseline (t0) concentrations. Stability was assumed when the results were within ±20% of the baseline concentrations. Long-term stability estimates were performed by re-extraction of samples used during the PK study (n = 6). Samples were initially analyzed for the PK assessment and were stored for 1.5 years (GEM-IB and IB) and 2.5 years (GEM, GEMMP, dFdU, and dFdU-MP) at <−70 °C prior to reanalysis. Stability was assessed by comparing analyte concentrations with the initial assessments. Stability was acceptable when the results were within ±20% of the baseline concentrations and the percent standard deviation (%-SD) was below 25%.
Structure (SMILES),%-ACC (% accuracy vs nominal) (24 hours autosampler 4 °C),%-ACC (% accuracy vs nominal) (48 hours autosampler 4 °C)
"Nc1ccn([C@@H]2O[C@H](CO)[C@@H](O)C2(F)F)c(=O)n1 [GEM, gemcitabine]",102.0%,107.0%
CCCCCN(C)CCC(O)(P(=O)(O)O)P(=O)(O)OP(=O)(O)OC[C@H]1O[C@@H](n2ccc(N)nc2=O)C(F)(F)[C@@H]1O (stereo partly drawn) [GEM-IB],96.8%,59.7%
"Nc1ccn([C@@H]2O[C@H](COP(=O)(O)O)[C@@H](O)C2(F)F)c(=O)n1 [GEMMP, gemcitabine-5′-phosphate]",96.9%,100.4%
"CCCCCN(C)CCC(O)(P(=O)(O)O)P(=O)(O)O [IB, ibandronate]",97.6%,98.6%
"O=c1ccn([C@@H]2O[C@H](CO)[C@@H](O)C2(F)F)c(=O)[nH]1 [dFdU, 2′,2′-difluoro-2′-deoxyuridine]",103.9%,103.4%
"O=c1ccn([C@@H]2O[C@H](COP(=O)(O)O)[C@@H](O)C2(F)F)c(=O)[nH]1 [dFdUMP, 2′,2′-difluoro-2′-deoxyuridine-5′-phosphate]",102.4%,98.8%
